Test results reported in patent US6737417B2, “Compounds with hydroxycarbonyl-halogenoalkyl side chain” (Chugai Seiyaku Kabushiki Kaisha, priority 1999, dated 2004).

Tested on: ovariectomized mice administered with 17β-estradiol
Assay: Anti-estrogenic activity (oral administration): inhibition of estradiol-induced increase in uterine weight in ovariectomized mice
Format: in vivo
Details: 10 mg/kg p.o., once a day for 3 days, ovariectomized ICR mice given 17β-estradiol-benzoate 0.1 μg/mouse s.c. for 3 days
Procedure: Test compounds were assayed for their oral anti-estrogenic activity in the following manner. In this experiment, the compounds prepared in Examples 5, 12, 14-33, 37 and 38 were used as test compounds. As control compounds, those having the same structures in the parent scaffold as the test compounds were used, that is, ZM189154 for Examples 5 and 27-33 and ICI182780 for Examples 12, 14-26, 37 and 38.
In this experiment, each of the test and control compounds was suspended in 5% arabic gum solution and orally administered for 3 days on a once-a-day basis. After 24 hours from the last administration, the test animals were sacrificed and the uteri were removed and weighed.

| SMILES | Inhibition (%) |
| --- | --- |
| C[C@]1(c2ccc(O)cc2)CCc2cc(O)ccc2[C@H]1CCCCCCCCC[S+]([O-])CCCC(F)(F)C(F)(F)F (some centres unmarked) [ZM189154, reference compound] | 42 |

Same assay, conditions: 10 mg/kg p.o., once a day for 3 days, ovariectomized ICR mice given 17β-estradiol-benzoate 0.1 μg/mouse s.c. for 3 days, 10 mg/kg

| SMILES | Inhibition (%) |
| --- | --- |
| C[C@]12C[C@H](CCCCCCCCC(CCCCCC(F)(F)C(F)(F)F)C(=O)O)[C@@H]3c4ccc(O)cc4CC[C@H]3[C@@H]1CC[C@@H]2O (stereo partly drawn) [Example 26, 10-(3,17β-dihydroxyestra-1,3,5(10)-trien-11β-yl)-2-(6,6,7,7,7-pentafluoroheptyl)decanoic Acid] | 96 |

Same assay, conditions: po, 24 h, 10 mg/kg p.o., once a day for 3 days, ovariectomized ICR mice given 17β-estradiol-benzoate 0.1 μg/mouse s.c. for 3 days

| SMILES | inhibition in vivo at 10 mg/kg [%] |
| --- | --- |
| C[C@]1(c2ccc(O)cc2)CCc2cc(O)ccc2C1CCCCCCCCC(CCCC(F)(F)C(F)(F)F)C(=O)O (mixture of isomers) [Example 5, 10-[(1RS, 2RS)-6-hydroxy-2-(4-hydroxyphenyl)-2-methyl-1,2,3,4-tetrahydro-1-naphthyl]-2-(4,4,5,5,5-pentafluoropentyl)decanoic Acid] | 67 |
| C[C@]12C[C@H](CCCCCCCCC(CCCCCC(F)(F)C(F)(F)F)C(=O)O)[C@@H]3c4ccc(O)cc4CC[C@H]3[C@@H]1CC[C@@H]2O (stereo partly drawn) [Example 12, 10-[3,17β-dihydroxyestra-1,3,5(10)-trien-11β-yl]-2-(6,6,7,7,7-pentafluoroheptyl)decanoic Acid] | 97 |
| C[C@]12CC[C@@H]3c4ccc(O)cc4C[C@@H](CCCCCCCCC(CCCC(F)(F)C(F)(F)F)C(=O)O)[C@H]3[C@@H]1CC[C@@H]2O (stereo partly drawn) [Example 14, 10-[3,17β-dihydroxyestra-1,3,5(10)-trien-7α-yl]-2-(4,4,5,5,5-pentafluoropentyl)decanoic Acid] | 87 |
| C[C@]12CC[C@@H]3c4ccc(O)cc4C[C@@H](CCCCCCCCC(CCCC(F)(F)C(F)(F)C(F)(F)C(F)(F)F)C(=O)O)[C@H]3[C@@H]1CC[C@@H]2O (stereo partly drawn) [Example 15, 10-[3,17β-dihydroxyestra-1,3,5(10)-trien-7α-yl]-2-(4,4,5,5,6,6,7,7,7-nonafluoroheptyl)decanoic Acid] | 96 |
| C[C@]12CC[C@@H]3c4ccc(O)cc4C[C@@H](CCCCCCCCC(CCC(F)(F)C(F)(F)C(F)(F)C(F)(F)F)C(=O)O)[C@H]3[C@@H]1CC[C@@H]2O (stereo partly drawn) [Example 16, 10-[3,17β-dihydroxyestra-1,3,5(10)-trien-7α-yl]-2-(3,3,4,4,5,5,6,6,6-nonafluorohexyl)decanoic Acid] | 98 |
| C[C@]12CC[C@@H]3c4ccc(O)cc4C[C@@H](CCCCCCCCC(CCCCCC(F)(F)C(F)(F)F)C(=O)O)[C@H]3[C@@H]1CC[C@@H]2O (stereo partly drawn) [Example 17, 10-[3,17β-dihydroxyestra-1,3,5(10)-trien-7α-yl]-2-(6,6,7,7,7-pentafluoroheptyl)decanoic Acid] | 94 |
| C[C@]12CC[C@@H]3c4ccc(O)cc4C[C@@H](CCCCCCCCCC(CCCC(F)(F)C(F)(F)C(F)(F)C(F)(F)F)C(=O)O)[C@H]3[C@@H]1CC[C@@H]2O (stereo partly drawn) [Example 18, 11-[3,17β-dihydroxyestra-1,3,5(10)-trien-7α-yl]-2-(4,4,5,5,6,6,7,7,7-nonafluoroheptyl)undecanoic Acid] | 85 |
| C[C@]12CC[C@@H]3c4ccc(O)cc4C[C@@H](CCCCCCCCCC(CCC(F)(F)C(F)(F)C(F)(F)C(F)(F)F)C(=O)O)[C@H]3[C@@H]1CC[C@@H]2O (stereo partly drawn) [Example 19, 11-[3,17β-dihydroxyestra-1,3,5(10)-trien-7α-yl]-2-(3,3,4,4,5,5,6,6,6-nonafluorohexyl)undecanoic Acid] | 92 |
| C[C@]12C[C@H](CCCCCCCCCC(CCC(F)(F)C(F)(F)C(F)(F)C(F)(F)F)C(=O)O)[C@@H]3c4ccc(O)cc4CC[C@H]3[C@@H]1CC[C@@H]2O (stereo partly drawn) [Example 20, 11-(3,17β-dihydroxyestra-1,3,5(10)-trien-11β-yl)-2-(3,3,4,4,5,5,6,6,6-nonafluorohexyl)undecanoic Acid] | 94 |
| C[C@]12C[C@H](CCCCCCCCC(CCCC(F)(F)C(F)(F)F)C(=O)O)[C@@H]3c4ccc(O)cc4CC[C@H]3[C@@H]1CC[C@@H]2O (stereo partly drawn) [Example 21, 10-(3,17β-dihydroxyestra-1,3,5(10)-trien-11β-yl)-2-(4,4,5,5,5-pentafluoropentyl)decanoic Acid] | 99 |
| C[C@]12C[C@H](CCCCCCCCC(CCCC(F)(F)C(F)(F)C(F)(F)C(F)(F)F)C(=O)O)[C@@H]3c4ccc(O)cc4CC[C@H]3[C@@H]1CC[C@@H]2O (stereo partly drawn) [Example 22, 10-(3,17β-dihydroxyestra-1,3,5(10)-trien-11β-yl)-2-(4,4,5,5,6,6,7,7,7-nonafluoroheptyl)decanoic Acid] | 98 |
| C[C@]12C[C@H](CCCCCCCCC(CCC(F)(F)C(F)(F)C(F)(F)C(F)(F)F)C(=O)O)[C@@H]3c4ccc(O)cc4CC[C@H]3[C@@H]1CC[C@@H]2O (stereo partly drawn) [Example 23, 10-(3,17β-dihydroxyestra-1,3,5(10)-trien-11β-yl)-2-(3,3,4,4,5,5,6,6,6-nonafluorohexyl)decanoic Acid] | 98 |
| C[C@]12C[C@H](CCCCCCCCCC(CCCC(F)(F)C(F)(F)F)C(=O)O)[C@@H]3c4ccc(O)cc4CC[C@H]3[C@@H]1CC[C@@H]2O (stereo partly drawn) [Example 24, 11-(3,17β-dihydroxyestra-1,3,5(10)-trien-11β-yl)-2-(4,4,5,5,5-pentafluoropentyl)undecanoic Acid] | 98 |
| C[C@]12C[C@H](CCCCCCCCCC(CCCC(F)(F)C(F)(F)C(F)(F)C(F)(F)F)C(=O)O)[C@@H]3c4ccc(O)cc4CC[C@H]3[C@@H]1CC[C@@H]2O (stereo partly drawn) [Example 25, 11-(3,17β-dihydroxyestra-1,3,5(10)-trien-11β-yl)-2-(4,4,5,5,6,6,7,7,7-nonafluoroheptyl)undecanoic Acid] | 93 |
| O=C(O)C(CCCCCCCCCCc1c(-c2ccc(O)cc2)ccc2cc(O)ccc12)CCCC(F)(F)C(F)(F)F (centres unmarked) [Example 27, 12-[6-hydroxy-2-(4-hydroxyphenyl)naphth-1-yl]-2-(4,4,5,5,5-pentafluoropentyl)dodecanoic Acid] | 64 |
| O=C(O)C(CCCCCCCCCc1c(-c2ccc(O)cc2)ccc2cc(O)ccc12)CCC(F)(F)C(F)(F)C(F)(F)C(F)(F)F (centres unmarked) [Example 28, 11-[6-hydroxy-2-(4-hydroxyphenyl)naphth-1-yl]-2-(3,3,4,4,5,5,6,6,6-nonafluorohexyl)undecanoic Acid] | 68 |
| Cc1cc(O)ccc1-c1ccc2cc(O)ccc2c1CCCCCCCCCCC(CCCC(F)(F)C(F)(F)F)C(=O)O (centres unmarked) [Example 29, 12-[6-hydroxy-2-(4-hydroxy-2-methylphenyl)-naphth-1-yl]-2-(4,4,5,5,5-pentafluoropentyl)dodecanoic Acid] | 80 |
| CCc1cc(O)ccc1-c1ccc2cc(O)ccc2c1CCCCCCCCCCC(CCCC(F)(F)C(F)(F)F)C(=O)O (centres unmarked) [Example 30, 12-[2-(2-ethyl-4-hydroxyphenyl)-6-hydroxynaphth-1-yl]-2-(4,4,5,5,5-pentafluoropentyl)dodecanoic Acid] | 58 |
| O=C(O)C(CCCCCCCCCCc1c(-c2ccc(O)cc2F)ccc2cc(O)ccc12)CCCC(F)(F)C(F)(F)F (centres unmarked) [Example 31, 12-[2-(2-fluoro-4-hydroxyphenyl)-6-hydroxynaphth-1-yl]-2-(4,4,5,5,5-pentafluoropentyl)dodecanoic Acid] | 75 |
| O=C(O)C(CCCCCCCCCCc1c(-c2ccc(O)cc2C(F)(F)F)ccc2cc(O)ccc12)CCCC(F)(F)C(F)(F)F (centres unmarked) [Example 32, 12-[6-hydroxy-2-(4-hydroxy-2-trifluoromethylphenyl)naphth-1-yl]-2-(4,4,5,5,5-pentafluoropentyl)-dodecanoic Acid] | 73 |
| O=C(O)C(CCCCCCCCCCc1c(-c2ccc(O)c(F)c2)ccc2cc(O)ccc12)CCCC(F)(F)C(F)(F)F (centres unmarked) [Example 33, 12-[2-(3-fluoro-4-hydroxyphenyl)-6-hydroxynaphth-1-yl]-2-(4,4,5,5,5-pentafluoropentyl)dodecanoic Acid] | 64 |
| C[C@]12CC[C@@H]3c4ccc(O)cc4C[C@@H](CCCCCCCC[C@H](CCCC(F)(F)C(F)(F)C(F)(F)C(F)(F)F)C(=O)O)[C@H]3[C@@H]1CC[C@@H]2O [Example 37, (2R)-10-(3,17β-dihydroxyestra-1,3,5(10)-trien-7α-yl)-2-(4,4,5,5,6,6,7,7,7-nonafluoroheptyl)decanoic Acid] | 101 |
| C[C@]12CC[C@@H]3c4ccc(O)cc4C[C@@H](CCCCCCCC[C@@H](CCCC(F)(F)C(F)(F)C(F)(F)C(F)(F)F)C(=O)O)[C@H]3[C@@H]1CC[C@@H]2O [Example 38, (2S)-10-(3,17β-dihydroxyestra-1,3,5(10)-trien-7α-yl)-2-(4,4,5,5,6,6,7,7,7-nonafluoroheptyl)decanoic Acid] | 100 |
| C[C@]12CC[C@@H]3c4ccc(O)cc4C[C@@H](CCCCCCCCC[S+]([O-])CCCC(F)(F)C(F)(F)F)[C@H]3[C@@H]1CC[C@@H]2O (some centres unmarked) [ICI182780, reference compound] | 51 |
